This assay addresses T1, cloned human M4 receptor (human Muscarinic receptor subtype 4) (Homo sapiens, UniProt P08173).
T1 construct: purchased Perkin-Elmer RBHM4M; host or cells: Chinese hamster ovary cells (CHO) membranes
T1 sequence (P08173 1-479): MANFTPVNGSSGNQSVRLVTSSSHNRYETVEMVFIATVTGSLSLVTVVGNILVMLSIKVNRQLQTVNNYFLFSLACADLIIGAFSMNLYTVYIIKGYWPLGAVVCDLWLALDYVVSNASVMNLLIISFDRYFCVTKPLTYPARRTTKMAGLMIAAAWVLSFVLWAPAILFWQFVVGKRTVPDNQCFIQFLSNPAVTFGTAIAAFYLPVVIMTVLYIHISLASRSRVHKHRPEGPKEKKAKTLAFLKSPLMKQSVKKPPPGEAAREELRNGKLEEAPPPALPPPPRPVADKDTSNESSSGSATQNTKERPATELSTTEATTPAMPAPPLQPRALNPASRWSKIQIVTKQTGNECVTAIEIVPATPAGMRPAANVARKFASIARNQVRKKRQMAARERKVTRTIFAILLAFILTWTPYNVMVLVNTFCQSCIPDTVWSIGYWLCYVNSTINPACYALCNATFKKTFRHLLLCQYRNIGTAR
The experiment in a line: hM4 receptor GTPγS binding. In kind it is biochemical. Conditions: CHO cell membranes expressing hM4, [35S]GTPγS binding. As to the method: hM4 Receptor GTPγS Binding
Membranes produced from Chinese hamster ovary cells (CHO) expressing the cloned human M4 receptor (human Muscarinic receptor subtype 4, gene bank access NM_000741), are obtained from Perkin-Elmer (RBHM4M). The membranes are thawed at 37° C., passed 3 times through a 23-gauge blunt-end needle, diluted in the GTPγS binding buffer (50 mM Hepes, 20 mM NaOH, 100 mM NaCl, 1 mM EDTA, 5 mM MgCl2, pH 7.4, 100 μM DTT). The EC50, IC50 and Emax of the compounds of the invention are evaluated from 10-point dose-response curves (three fold concentration range) done in 60 μl in 384-well non-specific binding surface plate (Corning). Ten microliters from the dose-response curves plate (5× concentration) are transferred to another 384 well plate containing 25 μl of the following: 10 μg of hM4 membranes, 500 μg of Flashblue beads (Perkin-Elmer) and GDP 40 μM. An additional 15 μl containing 3.3× (60,000 dpm) of GTPγ^35S (0.4 nM final) are added to the wells resulting in a total well volume of 50 μl. Basal and maximal stimulated [^35S]GTPγS binding are determined in absence and presence of 30 μM final of acetylcholine agonist. The membranes/beads mix are pre-incubated for 15 minutes at room temperature with 40 μM GDP prior to distribution in plates (20 μM final). The reversal of acetylcholine-induced stimulation (10 μM final) of [^35S]GTPγS binding is used to assay the antagonist properties (IC50) of the compounds. The plates are incubated for 60 minutes at room temperature then centrifuged at 400 rpm for 5 minutes. The radioactivity (cpm) is counted in a Trilux (Perkin-Elmer).
Values of EC50, IC50 and Emax are obtained using sigmoidal fits of a non-linear curve-fitting program (XLfit version 4.2.2 Excel add-in version 4.2.2 build 18 math 1Q version 2.1.2 build 18) of percent stimulated [^35S]GTPγS binding vs. log(molar ligand). All pEC50 and plC50 values are reported as arithmetic means ±standard error of mean of ‘n’ independent experiments.

For twelve compounds, EC50 results are on record in patent US20090221642A1, “MUSCARINIC RECEPTOR AGONISTS, COMPOSITIONS, METHODS OF TREATMENT THEREOF, AND PROCESSES FOR PREPARATION THEREOF-176” (AstraZeneca AB, priority 2008, published 2009).

Structures are written as SMILES. Like-named read-outs stand apart in the source and are kept apart here.

As for `CC#CCOC(=O)N1CCC(C)(N2CCC(n3c(=O)[nH]c4ccc(C)cc43)CC2)C1` (single isomer, unassigned) [Example 20, but-2-ynyl 3-methyl-3-(4-(6-methyl-2-oxo-2,3-dihydro-1H-benzo[d]imidazol-1-yl)piperidin-1-yl)pyrrolidine-1-carboxylate], the EC50 (read-out: hM4 EC50) was found to be 97 nM. On to `CCOC(=O)N1CCC(C)(N2CCC(N3C(=O)Cc4ccccc43)CC2)C1` (single isomer, unassigned) [Example 72, ethyl 3-methyl-3-(4-(2-oxoindolin-1-yl)piperidin-1-yl)pyrrolidine-1-carboxylate], for which, where the note is “read-out: hM4 EC50”, the EC50 was > 90000 nM. As for `CCOC(=O)N1CCC(C)(N2CCC(N3C(=O)Cc4ccc(C)cc43)CC2)C1` (single isomer, unassigned) [Example 70, ethyl 3-methyl-3-(4-(6-methyl-2-oxoindolin-1-yl)piperidin-1-yl)pyrrolidine-1-carboxylate], where the note is “read-out: hM4 EC50”, the EC50 came to 1770 nM. For `CCOC(=O)N1CCC(C)(N2CCC(N3C(=O)Cc4ccccc43)CC2)C1` (single isomer, unassigned) [Example 73, ethyl 3-methyl-3-(4-(2-oxoindolin-1-yl)piperidin-1-yl)pyrrolidine-1-carboxylate], the concentration giving a half-maximal response (EC50) (read-out: hM4 EC50) was > 90000 nM. For the setting “hM4 EC50 (nM)”, `COC(=O)N1CCC(C)(N2CCC(N3C(=O)Cc4cc(F)c(C)cc43)CC2)C1` (single isomer, unassigned) [Example 83, methyl 3-(4-(5-fluoro-6-methyl-2-oxoindolin-1-yl)piperidin-1-yl)-3-methylpyrrolidine-1-carboxylate] had an EC50 of 11300 nM. `CCOC(=O)N1CCC(C)(N2CCC(n3c(=O)[nH]c4ccc(F)cc43)CC2)C1` (single isomer, unassigned) [Example 49, ethyl 3-(4-(6-fluoro-2-oxo-2,3-dihydro-1H-benzo[d]imidazol-1-yl)piperidin-1-yl)-3-methylpyrrolidine-1-carboxylate]: the EC50 (read-out: hM4 EC50) was 9480 nM. Same read-out and setting: to `CC1(N2CCC(n3c(=O)[nH]c4ccccc43)CC2)CCN(C(=O)OCCF)C1` (racemic) [Example 4, 2-fluoroethyl 3-methyl-3-(4-(2-oxo-2,3-dihydro-1H-benzo[d]imidazol-1-yl)piperidin-1-yl)pyrrolidine-1-carboxylate] belongs 4380 nM; to `CC#CCOC(=O)N1CCC(C)(N2CCC(n3c(=O)[nH]c4ccccc43)CC2)C1` (single isomer, unassigned) [Example 33, but-2-ynyl 3-methyl-3-(4-(2-oxo-2,3-dihydro-1H-benzo[d]imidazol-1-yl)piperidin-1-yl)pyrrolidine-1-carboxylate], 316 nM; to `Cc1ccc2c(c1)[nH]c(=O)n2C1CCN(C2(C)CCN(C(=O)OC(C)C)C2)CC1` (single isomer, unassigned) [Example 15, isopropyl 3-methyl-3-(4-(5-methyl-2-oxo-2,3-dihydro-1H-benzo[d]imidazol-1-yl)piperidin-1-yl)pyrrolidine-1-carboxylate], > 90000 nM. As for `COC(=O)N1CCC(C)(N2CCC(n3c(=O)[nH]c4ccc(C)cc43)CC2)C1` (single isomer, unassigned) [Example 47, methyl 3-methyl-3-(4-(6-methyl-2-oxo-2,3-dihydro-1H-benzo[d]imidazol-1-yl)piperidin-1-yl)pyrrolidine-1-carboxylate], under “read-out: hM4 EC50”, the EC50 was determined as 907 nM. For `CCOC(=O)N1CCC(C)(N2CCC(N3C(=O)Cc4cc(F)c(C)cc43)CC2)C1` (single isomer, unassigned) [Example 81, ethyl 3-(4-(5-fluoro-6-methyl-2-oxoindolin-1-yl)piperidin-1-yl)-3-methylpyrrolidine-1-carboxylate], where the note is “read-out: hM4 EC50”, the EC50 is 7070 nM. Same read-out and setting: to `CC#CCOC(=O)N1CCC(C)(N2CCC(n3c(=O)[nH]c4ccccc43)CC2)C1` (single isomer, unassigned) [Example 34, but-2-ynyl 3-methyl-3-(4-(2-oxo-2,3-dihydro-1H-benzo[d]imidazol-1-yl)piperidin-1-yl)pyrrolidine-1-carboxylate] belongs 1670 nM.

One may read the EC50 as the midpoint of the concentration-response curve.
